Structures can show the parent of a compound that is named as a salt. Where two headings read alike, the source gives them in different places.
Tests used:
Bacillus subtilis = assay: Inhibition zone test (holing method); format: cell-based; conditions: 37° C., 24 h; compounds 0.05 mg/well, streptomycin 0.15 mg/well
Protocol: (§1) After being cultured at 37° C. for 24 h, the sizes of inhibition zones were measured.

[1] = system: Staphylococcus aureus wild type; assay: Inhibition zone test (holing method); format: cell-based; conditions: 37° C., 24 h; compounds 0.05 mg/well, streptomycin 0.15 mg/well
Protocol: as §1

[2] = system: suspended Pseudomonas aeruginosa; assay: Experiment of combination with antibiotics; format: cell-based; conditions: Pseudomonas aeruginosa cultured 15 h, OD600; ciprofloxacin 0.017 μg/mL, erythromycin 3.75 μg/mL, Andro 350 μg/mL, AL-1 538 μg/mL (1 μmol/mL)
MRSA5676 = assay: Test of minimal inhibitory concentration (MIC); format: cell-based, Staphylococcus aureus; conditions: two-fold dilution, 37° C., 24 h, absorbance 595 nm
[3] = system: Staphylococcus aureus wild type; assay: Test of minimal inhibitory concentration (MIC); format: cell-based; conditions: two-fold dilution, 37° C., 24 h, absorbance 595 nm
L1210 leukemia cells = assay: In vitro antitumor activity to L1210 leukemia cells (MTT); format: cell-based
Protocol: The cells were cultured in an incubator at 37° C., 5% CO2 and saturated humidity for 48 h. Then 5 mg/mL MTT (20 μL/well) was added and cultured at the same conditions for 4 h, DMSO (150 μL/well) was added, and the (570/630 nm) absorbance (A values) was measured by using micro-plate reader.

MRSA5677 = assay: Test of minimal inhibitory concentration (MIC); format: cell-based, Staphylococcus aureus; conditions: two-fold dilution, 37° C., 24 h, absorbance 595 nm
L1210 cells = format: cell-based
Protocol: The cells were cultured in an incubator at 37° C., 5% CO2 and saturated humidity. The culture medium was removed, the cells were washed with PBS twice, fixed at −20° C. overnight. Then the cells were centrifuged again, washed with PBS to remove ethanol, cultured with RNase A (200 μg/mL, Sigma) at 37° C. for 1 h, stained with PI (50 μg/mL, Sigma) in dark for 30 min, and detected by using a flow cytometer.

[4] = system: secretion of pyocyanin by Pseudomonas aeruginosa; assay: Measurement of pyocyanin; format: cell-based; conditions: 18 h culture, A520; Andro, AL-1 1 mM; Chuanhuning, Yanhuning, Lianbizhi 10 mM (FIG. 3)
Protocol: Pseudomonas aeruginosa was inoculated in LB medium, then cultured at a constant temperature of 37° C. in a shaker overnight. […] The supernatant was taken and extracted in turn with chloroform and 0.2 N HCl, and A520 values were measured (Zielinshi et al., Biol. Chem. 1991, 266, 9754-9763; May et al., Clin. Microbiology Rev. 1991, 4, 191-206).

[5] = system: extracellular protease of Pseudomonas aeruginosa; assay: Measurement of extracellular protease; format: cell-based; conditions: azo-casein, A440; Andro, AL-1 1 mM; Chuanhuning, Yanhuning, Lianbizhi 10 mM (FIG. 4)
Protocol: Pseudomonas aeruginosa was inoculated in LB liquid, and cultured at a constant temperature of 37° C. in a shaker overnight. […] After the bacterial liquids were cultured simultaneously at 37° C. for 6 h and centrifuged, supernatant 100 μL was taken, azo-casein 5 mg was added, […] and CaCl2 10 mM were added, and then they were shaken for reaction at 37° C. for 6 h, and the reaction was terminated by adding EDTA-Na. The A440 values of the supernatants were measured (Zielinshi et al., Biol. Chem. 1991, 266, 9754-9763; May et al., Clin. Microbiology Rev. 1991, 4, 191-206).

Pseudomonas aeruginosa [6] = assay: Inhibition zone test (holing method); format: cell-based; conditions: 37° C., 24 h; compounds 0.05 mg/well, gentamicin 0.10 mg/well
Protocol: as §1

[7] = system: Staphylococcus aureus MRSA 5676; assay: Inhibition zone test (holing method); format: cell-based; conditions: 37° C., 24 h; compounds 0.05 mg/well, vancomycin 0.15 mg/well
Protocol: as §1

E. coli = assay: Inhibition zone test (holing method); format: cell-based; conditions: 37° C., 24 h; compounds 0.05 mg/well, gentamicin 0.10 mg/well
Protocol: as §1

Candida albicans = assay: Inhibition zone test (holing method); format: cell-based; conditions: 37° C., 24 h; compounds 0.05 mg/well, nysfungin 0.10 mg/well
Protocol: as §1

[8] = system: Staphylococcus aureus MRSA 5677; assay: Inhibition zone test (holing method); format: cell-based; conditions: 37° C., 24 h; compounds 0.05 mg/well, vancomycin 0.15 mg/well
Protocol: as §1

Pseudomonas aeruginosa [9] = assay: Measurement of growth curve of Pseudomonas aeruginosa; format: cell-based; conditions: 10 mM according to FIG. 2 legend
Protocol: Pseudomonas aeruginosa was inoculated in LB medium, and cultured at a constant temperature of 37° C. in a shaker overnight.

[10] = system: rats with STZ-induced diabetes mellitus; assay: Therapeutical effects on STZ-induced diabetes mellitus in rats; conditions: Day 0, before treatment
Protocol: 30 Female SD rats, 180-220 g, fasted for 16 h, were subjected to intraperitoneal injection of 60 mg/kg of STZ (purchased from Sigma Company). After 72 h, blood samples were collected from the rats by cutting their tails after fasting 16 h, and blood glucose values were measured by using a blood glucose analyzer (Johnson & Johnson Company). […] Animals were weighed, orbital bleeded, and the sera were separated. According to the instructions of kit (Zhejiang Dongou Biotechnology Co., Ltd.), the contents of triglyceride and total cholesterol were measured. […] The rats of vehicle group were treated with an equivalent volume of solvent (20% DMSO in H2O). After being fasted for 16 h, the rats were weighed, and bleeded for the measurement of blood glucose, triglyceride and total cholesterol. The obtained data were processed by using one-factor analysis of variance (One-way ANOVA) followed by Student's t-test.

glutathione = conditions: after injection to animals; especially lung, liver and kidney cells; cited from earlier work
NF-kappaB = conditions: 0.5 mmol/L, HAEC pretreated 48 h, TNF-α 10 U/ml; cited from earlier work
[11] = L1210 cells, 48 h, MTT, read-out: IC50

Compound | Inhibition zone diameter, Bacillus Subtilis (Bacillus subtilis) | Inhibition zone diameter, Staphylococcus aureus Wild type [1] | Inhibition zone diameter, Pseudomonas aeruginosa (Pseudomonas aeruginosa [6]) | Inhibition zone diameter, Staphylococcus aureus MRSA 5676 [7] | Inhibition zone diameter, E. coli (E. coli) | Inhibition zone diameter, Candida albicans (Candida albicans) | Inhibition zone diameter, Staphylococcus aureus MRSA 5677 [8] | further results
[H]/N=C(/N)N[C@H]1[C@H](O)[C@@H](O)[C@H](O[C@@H]2O[C@@H](C)[C@](O)(C=O)[C@H]2O[C@@H]2O[C@@H](CO)[C@H](O)[C@@H](O)[C@@H]2NC)[C@@H](N/C(N)=N\[H])[C@@H]1O [Streptomycin] | 22.1 ± 1.00 mm | 21.2 ± 1.00 mm | – | – | – | – | – | –
CC[C@H]1OC(=O)[C@H](C)[C@@H](O[C@H]2C[C@@](C)(OC)[C@@H](O)[C@H](C)O2)[C@H](C)[C@@H](O[C@@H]2O[C@H](C)C[C@H](N(C)C)[C@H]2O)[C@](C)(O)C[C@@H](C)C(=O)[C@H](C)[C@@H](O)[C@]1(C)O [Erythromycin] | – | – | – | – | – | – | – | Survival Rate [2]: 93.9%
C=C1CCC2[C@](C)(CO)[C@H](O)CC[C@@]2(C)[C@@H]1C/C=C1/C(=O)OCC1OC(=O)/C=C/c1ccc([N+](=O)[O-])cc1 (some centres unmarked) [ANO, 14-[4′-nitrocinnamyl]-3,19-dihydroxy-andrographolide] | ^b (incompetence (inhibition zone diameter <4 mm)) | 8.3 ± 0.99 mm | ^b (incompetence (inhibition zone diameter <4 mm)) | 8.1 ± 0.64 mm | ^b (incompetence (inhibition zone diameter <4 mm)) | ^b (incompetence (inhibition zone diameter <4 mm)) | 6.4 ± 0.42 mm | MIC, MRSA5676 (MRSA5676): 62.5; MIC, Wild type [3]: 62.5; IC50 (L1210 leukemia cells; Mus musculus, L1210 cells, 48 h, MTT, read-out: IC50): 9.96 ± 2.25 µM; MIC, MRSA5677 (MRSA5677): 25; effect on cell cycle / apoptosis of L1210 cells (L1210 cells; 10 μM, after 12 h): arrest L1210 cells at G1 prophase; inhibition of the secretion of pyocyanin [4]: AL-1>Andro>ANO; inhibition of the production/activity of extracellular protease [5]: AL-1>ANO>Andro
potassium sodium dehydroandrographolide succinate [Yanhuning] | ^b (incompetence (inhibition zone diameter <4 mm)) | ^b (incompetence (inhibition zone diameter <4 mm)) | ^b (incompetence (inhibition zone diameter <4 mm)) | ^b (incompetence (inhibition zone diameter <4 mm)) | ^b (incompetence (inhibition zone diameter <4 mm)) | ^b (incompetence (inhibition zone diameter <4 mm)) | ^b (incompetence (inhibition zone diameter <4 mm)) | inhibition of the growth of Pseudomonas aeruginosa (growth curve, A600) (Pseudomonas aeruginosa [9]): no direct inhibition effect; IC50 (L1210 leukemia cells; [11]): > 100 µM
COc1cccc2c1C(=O)c1c(O)c3c(c(O)c1C2=O)C[C@@](O)(C(=O)CO)C[C@@H]3O[C@H]1C[C@H](N)[C@H](O)[C@H](C)O1 [Dox, doxorubicin hydrochloride] | – | – | – | – | – | – | – | effect on cell cycle of L1210 cells (L1210 cells; concentration not given): arrested L1210 cells at G2 phase
COc1ccc(Cl)cc1C(=O)NCCc1ccc(S(=O)(=O)NC(=O)NC2CCCCC2)cc1 [Glibenclamide] | – | – | – | – | – | – | – | Blood glucose [10]: 26.9 ± 1.56 mmol/L; Body weight [10]: 201 ± 3.61 g; Total cholesterol [10]: 2.57 ± 1.09 mmol/L; Total triglyceride [10]: 7.84 ± 2.21 mmol/L
O=C(O)CCCCC1CCSS1 (stereo not drawn) [lipoic acid, Alpha-lipoic acid] | – | – | – | – | – | – | – | increase of glutathione level (glutathione): 30%-70%; inhibition of NF-kappaB activity induced by TNF-α (NF-kappaB): 81%
Gentamicin | – | – | 21.0 ± 1.00 mm | – | 20.1 ± 1.00 mm | – | – | –
potassium dehydroandrograpolide succinate [Chuanhuning] | ^b (incompetence (inhibition zone diameter <4 mm)) | ^b (incompetence (inhibition zone diameter <4 mm)) | ^b (incompetence (inhibition zone diameter <4 mm)) | ^b (incompetence (inhibition zone diameter <4 mm)) | ^b (incompetence (inhibition zone diameter <4 mm)) | ^b (incompetence (inhibition zone diameter <4 mm)) | ^b (incompetence (inhibition zone diameter <4 mm)) | inhibition of the growth of Pseudomonas aeruginosa (growth curve, A600) (Pseudomonas aeruginosa [9]): no direct inhibition effect; IC50 (L1210 leukemia cells; [11]): > 100 µM
C=C1CCC2[C@@](C)(CC[C@@H](O)[C@@]2(C)CO)C1CC(C1=CCOC1=O)S(=O)(=O)[O-].[Na+] (some centres unmarked) [Lianbizhi, andrographolide sodium bisulfite] | ^b (incompetence (inhibition zone diameter <4 mm)) | ^b (incompetence (inhibition zone diameter <4 mm)) | ^b (incompetence (inhibition zone diameter <4 mm)) | ^b (incompetence (inhibition zone diameter <4 mm)) | ^b (incompetence (inhibition zone diameter <4 mm)) | ^b (incompetence (inhibition zone diameter <4 mm)) | ^b (incompetence (inhibition zone diameter <4 mm)) | inhibition of the growth of Pseudomonas aeruginosa (growth curve, A600) (Pseudomonas aeruginosa [9]): no direct inhibition effect; IC50 (L1210 leukemia cells; Mus musculus, L1210, 48 h): > 100 µM
Nysfungin | – | – | – | – | – | 10.00 ± 1.00 mm | – | –
CN[C@H](CC(C)C)C(=O)N[C@H]1C(=O)N[C@@H](CC(N)=O)C(=O)N[C@H]2C(=O)N[C@H]3C(=O)N[C@H](C(=O)N[C@H](C(=O)O)c4cc(O)cc(O)c4-c4cc3ccc4O)[C@H](O)c3ccc(c(Cl)c3)Oc3cc2cc(c3O[C@@H]2O[C@H](CO)[C@@H](O)[C@H](O)[C@H]2O[C@H]2C[C@](C)(N)[C@H](O)[C@H](C)O2)Oc2ccc(cc2Cl)[C@H]1O [Vancomycin] | – | – | – | 20.0 ± 1.00 mm | – | – | 21.0 ± 1.00 mm | MIC, MRSA5676 (MRSA5676): 1.56; MIC, Wild type [3]: 1.56; MIC, MRSA5677 (MRSA5677): 3.13
